This note sets out measurements from patent US8389513B2, “2-amino-5,5-difluoro-5,6-dihydro-4H-[1,3]oxazin-4-yl)-phenyl]-amides” (Hoffmann-La Roche Inc., priority 2009, dated 2013).

The target of assay [1] is T1, CYP3A4 (Homo sapiens, UniProt P08684).
T1 construct: 0.2 mg/ml pooled human liver microsomes; from tissue; host or cells: pooled human liver microsomes
In words: CYP inhibition assay, CYP3A4. It counts as in vitro ADME. The note with it: human liver microsomes, midazolam; read-out: CYP IC50 3A4. As for the experimental part:
Inhibition of cytochromes P450 (CYPs) 2C9, 2D6 and 3A4 was assessed using human liver microsomes and CYP-selective substrate metabolism reactions. 50 μl incubations were made up containing (finally) 0.2 mg/ml pooled human liver microsomes, 5 μM substrate (diclofenac for CYP2C9 [4′ hydroxylase], dextromethorphan for CYP2D6 [O-demethylase] or midazolam for CYP3A4 [1′ hydroxylase]), 0.25 μL DMSO containing test inhibitor and NADPH regenerating system. […] Incubations were prewarmed to 37° C. for 10 minutes before initiation by addition of NADPH regenerating system. Incubations were quenched after 5 minutes (20 minutes for dextromethorphan) by addition of 50 μl cold acetonitrile containing 20 ng/ml 4-OH-diclofenac-13C6, 20 ng/mL dextrorphan-D3 and 20 ng/mL 1-OH-midazolam-D4. Quenched incubates were stored at −20° C. for at least 1 hour before centrifugation (20,000×g, 20 minutes). Supernatants were removed and diluted 1:1 with water prior to analysis using a RapidFire sample injector system and API4000 mass spectrometer. Peak areas for substrate, metabolite and stable-labelled metabolite standard were determined using MS/MS. The peak area ratios between the metabolite generated by the enzymatic reaction and the internal standard were used in subsequent calculations. The percentage of (DMSO) control activity was calculated for each incubate and IC50 values estimated by non-linear regression. Sulfaphenazole, quinidine or ketoconazole were tested in each CYP2C9, CYP2D6 or CYP3A4 inhibition experiment, respectively, to ensure assay sensitivity and reproducibility.
A general note: Liver microsomes are vesicles of endoplasmic reticulum, rich in cytochrome P450 enzymes.

Assay [2] has as its target T2, recombinant human cathepsin E (Homo sapiens, UniProt P14091).
T2 construct: purchased R&D Systems
T2 sequence (P14091 54-396): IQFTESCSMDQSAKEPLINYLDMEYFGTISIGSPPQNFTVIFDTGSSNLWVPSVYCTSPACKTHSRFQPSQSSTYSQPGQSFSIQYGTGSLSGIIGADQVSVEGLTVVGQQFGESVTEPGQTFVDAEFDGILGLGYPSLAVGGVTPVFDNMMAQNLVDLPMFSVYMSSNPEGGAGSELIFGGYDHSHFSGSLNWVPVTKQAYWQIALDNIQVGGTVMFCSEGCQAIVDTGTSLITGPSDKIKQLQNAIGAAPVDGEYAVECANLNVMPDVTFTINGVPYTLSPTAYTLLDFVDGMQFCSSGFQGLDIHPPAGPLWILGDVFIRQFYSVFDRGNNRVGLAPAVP
The experiment in a line: Cathepsin E fluorescent substrate kinetic assay. It is filed as biochemical. Particulars: pH 4.5. From the text: Cathepsin D and Cathepsin E Fluorescent Substrate Kinetic Assays
The MR121 fluorescence assays described below are based on the fact that MR121 forms a non-fluorescent ground state complex with tryptophan. In solution this formation occurs at millimolar concentrations of tryptophan. The mechanism can be used to design a generic biochemical assay for proteases. […] In absence of protease activity, the substrates remain intact and the MR121 fluorescence is reduced by the high local Trp-concentration. If the substrates are cleaved by the enzymes the MR121 fluorescence is recovered.
The fluorescent substrate cathepsin D and cathepsin E kinetic assays were performed at room temperature in 384-well microtiter plates (black with clear flat bottom, non binding surface plates from Corning) in a final volume of 51 μl. The test compounds were serially diluted in DMSO (15 concentrations, 1/3 dilution steps) and 1 μl of diluted compounds were mixed for 10 min with 40 μl of cathepsin D (from human liver, Calbiochem) diluted in assay buffer (100 mM sodium acetate, 0.05% BSA, pH 5.5; final concentration: 200 nM) or with 40 μl of recombinant human cathepsin E (R&D Systems) diluted in assay buffer (100 mM sodium acetate, 0.05% BSA, pH 4.5; final concentration: 0.01 nM). […] The enzymatic reaction was followed in a plate: vision reader (Perkin Elmer) (excitation wavelength: 630 nm; emission: 695 nm) for at least 30 minutes in a kinetic measurement detecting an increase of MR121 fluorescence during the reaction time. The slope in the linear range of the kinetic was calculated and the IC50 of the test compounds were determined using a four parameter equation for curve fitting.

Assay [3] deals with T3, BACE2 (Rattus norvegicus, UniProt Q6IE75).
T3 construct: endogenous cellular BACE2 in the Ins1e rat cell line; endogenous in cells; host or cells: INS-TMEM27 (INS1e-derived rat cell line with TetOn-inducible full-length hTMEM27)
T3 sequence (Q6IE75 63-514): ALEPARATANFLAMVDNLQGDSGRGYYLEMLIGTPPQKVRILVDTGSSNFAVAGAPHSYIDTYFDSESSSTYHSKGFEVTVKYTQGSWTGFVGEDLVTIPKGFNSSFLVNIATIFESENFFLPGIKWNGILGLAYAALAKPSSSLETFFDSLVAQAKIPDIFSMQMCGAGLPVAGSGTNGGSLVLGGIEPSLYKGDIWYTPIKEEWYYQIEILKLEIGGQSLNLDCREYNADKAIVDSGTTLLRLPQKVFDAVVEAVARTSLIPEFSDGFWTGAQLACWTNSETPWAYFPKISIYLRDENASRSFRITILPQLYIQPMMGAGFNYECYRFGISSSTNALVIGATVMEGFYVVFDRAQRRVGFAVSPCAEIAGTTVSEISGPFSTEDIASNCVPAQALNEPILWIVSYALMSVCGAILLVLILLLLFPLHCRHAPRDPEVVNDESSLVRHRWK
In words: Assay for BACE inhibition by measuring cellular TMEM27 cleavage. It is filed as cell-based. Particulars: INS-TMEM27 cells (INS1e-derived); shed TMEM27 by ELISA; read-out: BACE2 cell act. IC50. The essentials: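 Ins1e-derived INS-TMEM27 rat cells with doxycycline-inducible full-length human TMEM27; inhibitor added 2 h before doxycycline (500 ng/ml final), then 46 h at 37 °C. Shed TMEM27 in supernatant quantified by sandwich ELISA with anti-human-TMEM27 antibodies; EC50 from curve fit across inhibitor concentrations.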
(An ELISA detects its analyte on a solid surface through an enzyme-linked reagent.)

T1 sequence (P08684 whole entry): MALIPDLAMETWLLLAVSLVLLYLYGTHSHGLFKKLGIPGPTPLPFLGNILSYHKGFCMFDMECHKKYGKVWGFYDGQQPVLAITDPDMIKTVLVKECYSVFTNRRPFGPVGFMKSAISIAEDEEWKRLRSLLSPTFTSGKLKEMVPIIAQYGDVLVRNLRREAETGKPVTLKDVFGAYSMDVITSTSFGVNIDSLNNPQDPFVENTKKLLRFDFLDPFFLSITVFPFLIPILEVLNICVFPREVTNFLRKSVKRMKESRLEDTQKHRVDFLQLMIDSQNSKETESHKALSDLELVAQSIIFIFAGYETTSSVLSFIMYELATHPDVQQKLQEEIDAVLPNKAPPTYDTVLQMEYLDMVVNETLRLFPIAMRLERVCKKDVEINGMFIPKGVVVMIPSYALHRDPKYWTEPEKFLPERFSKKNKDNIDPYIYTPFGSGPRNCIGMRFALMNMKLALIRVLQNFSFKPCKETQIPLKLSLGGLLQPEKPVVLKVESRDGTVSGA

Regarding `C[C@]1(c2cc(NC(=O)c3ncc(C#N)cc3Cl)ccc2F)N=C(N)OCC1(F)F` [Example 39, 3-Chloro-5-cyano-pyridine-2-carboxylic acid [3-((R)-2-amino-5,5-difluoro-4-methyl-5,6-dihydro-4H-[1,3]oxazin-4-yl)-4-fluoro-phenyl]-amide], the IC50 in assay [1] is 1000 to 10000 nM; in assay [2] it was > 200000 nM; in assay [3] it was 224 nM.

For the compound `CC1(C)OC(N)=N[C@](C)(c2cc(NC(=O)c3ccc(C#N)cn3)ccc2F)C1(F)F` [Example 21, 5-Cyano-pyridine-2-carboxylic acid [3-((R)-2-amino-5,5-difluoro-4,6,6-trimethyl-5,6-dihydro-4H-[1,3]oxazin-4-yl)-4-fluoro-phenyl]-amide], the IC50 was > 10000 nM in assay [1], > 200000 nM in assay [2] and 210 nM in assay [3].

For `C[C@]1(c2cc(NC(=O)c3ccc(Cl)cn3)ccc2F)N=C(N)OCC1(F)F` [Example 1, 5-Chloro-pyridine-2-carboxylic acid [3-((R)-2-amino-5,5-difluoro-4-methyl-5,6-dihydro-4H-[1,3]oxazin-4-yl)-4-fluoro-phenyl]-amide], the results for the IC50 in assay [1], in assay [2] and in assay [3] were > 10000 nM, 109000 nM and 35 nM, respectively.

With `CC1(C)OC(N)=N[C@](C)(c2cc(NC(=O)c3ncc(C(F)(F)F)cc3Cl)ccc2F)C1(F)F` [Example 20, 3-Chloro-5-trifluoromethyl-pyridine-2-carboxylic acid [3-((R)-2-amino-5,5-difluoro-4,6,6-trimethyl-5,6-dihydro-4H-[1,3]oxazin-4-yl)-4-fluoro-phenyl]-amide], the IC50 in assay [1] was > 10000 nM; in assay [2], > 200000 nM; in assay [3], 1270 nM.

As to `C[C@]1(c2cc(NC(=O)c3ncc(C(F)(F)F)cc3Cl)ccc2F)N=C(N)OCC1(F)F` [Example 5, 3-Chloro-5-trifluoromethyl-pyridine-2-carboxylic acid [3-((R)-2-amino-5,5-difluoro-4-methyl-5,6-dihydro-4H-[1,3]oxazin-4-yl)-4-fluoro-phenyl]-amide], the IC50 in assay [1] was > 10000 nM; in assay [2] it was > 200000 nM; in assay [3], 15 nM.

With `CC1(C)OC(N)=N[C@](C)(c2cc(NC(=O)c3ncc(C#N)cc3Cl)ccc2F)C1(F)F` [Example 22, 3-Chloro-5-cyano-pyridine-2-carboxylic acid [3-((R)-2-amino-5,5-difluoro-4,6,6-trimethyl-5,6-dihydro-4H-[1,3]oxazin-4-yl)-4-fluoro-phenyl]-amide], the IC50 in assay [1] is 1000 to 10000 nM; in assay [2] it was > 200000 nM; in assay [3], 175 nM.

In the case of `C[C@]1(c2cc(NC(=O)c3ncc(Cl)cc3Cl)ccc2F)N=C(N)OCC1(F)F` [Example 8, 3,5-Dichloro-pyridine-2-carboxylic acid [3-((R)-2-amino-5,5-difluoro-4-methyl-5,6-dihydro-4H-[1,3]oxazin-4-yl)-4-fluoro-phenyl]-amide], the IC50 in assay [1] was > 10000 nM; in assay [3], 71 nM.

By IC50 is commonly meant the concentration that inhibits the measured activity by half.
